In BindingDB's records for doi:10.1021/jm020424z (Merck Research Laboratories, 2002):

Molecular target: Carboxypeptidase A1 (Bos taurus) (UniProt P00730)
Test: The compound was evaluated for the inhibition of Carboxypeptidase A

Sequence of Carboxypeptidase A1 (Bos taurus) (P00730 whole entry, looked up): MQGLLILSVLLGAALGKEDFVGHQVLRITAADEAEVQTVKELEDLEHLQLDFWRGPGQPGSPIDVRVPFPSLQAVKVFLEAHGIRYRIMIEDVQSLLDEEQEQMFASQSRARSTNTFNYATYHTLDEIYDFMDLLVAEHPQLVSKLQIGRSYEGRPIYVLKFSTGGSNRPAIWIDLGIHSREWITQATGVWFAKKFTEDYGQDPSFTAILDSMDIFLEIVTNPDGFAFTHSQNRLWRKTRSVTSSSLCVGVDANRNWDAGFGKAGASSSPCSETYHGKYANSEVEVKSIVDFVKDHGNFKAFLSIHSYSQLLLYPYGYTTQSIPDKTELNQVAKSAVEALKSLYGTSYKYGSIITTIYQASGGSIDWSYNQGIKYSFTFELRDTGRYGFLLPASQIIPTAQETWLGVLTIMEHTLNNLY

Compound	Ki [nM]
O=C(O)CCC(Cc1ccccc1)C(=O)O (configuration not stated) [2-Benzyl-pentanedioic acid]	5000
O=C(O)C[C@@H](Cc1ccccc1)C(=O)O [2-benzylbutanedioic acid]	450
